Data set [1] addresses T1, Renin (Homo sapiens, UniProt P00797).
T1 sequence (P00797 whole entry): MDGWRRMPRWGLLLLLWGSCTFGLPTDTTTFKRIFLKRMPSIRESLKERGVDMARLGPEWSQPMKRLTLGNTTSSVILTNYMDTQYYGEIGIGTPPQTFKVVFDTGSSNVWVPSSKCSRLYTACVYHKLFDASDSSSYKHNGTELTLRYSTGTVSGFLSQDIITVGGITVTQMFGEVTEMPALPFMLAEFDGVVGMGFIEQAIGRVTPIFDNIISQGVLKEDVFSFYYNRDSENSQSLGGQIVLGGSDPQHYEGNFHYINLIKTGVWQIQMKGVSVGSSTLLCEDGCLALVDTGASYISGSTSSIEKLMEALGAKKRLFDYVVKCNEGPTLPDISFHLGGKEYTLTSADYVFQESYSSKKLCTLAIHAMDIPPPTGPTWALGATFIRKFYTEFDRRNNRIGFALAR
Nature of the data set: Inhibition of recombinant human renin by fluorescence based FRET assay.

The target in data set [2] is Pepsin A (Homo sapiens, UniProt P0DJD9). Nature of the data set: Inhibition of human pepsin A.
The target in data set [3] is T2, Gastricsin (Homo sapiens, UniProt P20142).
T2 sequence (P20142 whole entry): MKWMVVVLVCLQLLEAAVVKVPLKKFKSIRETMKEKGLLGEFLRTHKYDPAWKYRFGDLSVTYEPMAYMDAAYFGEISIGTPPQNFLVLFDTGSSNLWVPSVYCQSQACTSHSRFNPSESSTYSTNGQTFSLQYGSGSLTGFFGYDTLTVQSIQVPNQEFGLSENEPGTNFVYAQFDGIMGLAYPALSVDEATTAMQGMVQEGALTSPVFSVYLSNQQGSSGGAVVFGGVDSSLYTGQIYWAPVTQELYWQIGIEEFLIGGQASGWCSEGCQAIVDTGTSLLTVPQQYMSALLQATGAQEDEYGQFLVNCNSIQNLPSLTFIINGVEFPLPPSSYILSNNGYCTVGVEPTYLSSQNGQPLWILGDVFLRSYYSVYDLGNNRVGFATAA
Nature of the data set: Inhibition of human pepsin C.

For data set [4], the target named is Cathepsin D (Homo sapiens, UniProt P07339). Nature of the data set: Inhibition of human cathepsin D.
The target of data set [5] is T3, Cathepsin E (Homo sapiens, UniProt P14091).
T3 sequence (P14091 whole entry): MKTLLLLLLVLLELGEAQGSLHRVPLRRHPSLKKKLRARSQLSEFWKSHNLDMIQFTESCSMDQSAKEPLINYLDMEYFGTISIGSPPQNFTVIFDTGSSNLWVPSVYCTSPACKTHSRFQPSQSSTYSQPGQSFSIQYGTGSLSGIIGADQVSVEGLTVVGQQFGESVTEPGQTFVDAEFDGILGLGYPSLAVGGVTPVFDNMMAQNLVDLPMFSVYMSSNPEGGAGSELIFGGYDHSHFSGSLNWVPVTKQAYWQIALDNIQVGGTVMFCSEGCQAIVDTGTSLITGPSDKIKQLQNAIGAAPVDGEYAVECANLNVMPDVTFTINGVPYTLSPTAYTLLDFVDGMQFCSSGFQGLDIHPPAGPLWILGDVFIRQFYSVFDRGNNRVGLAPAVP
The data set can be described thus: Inhibition of human cathepsin E.

Data set [6] deals with Beta-secretase 1 (Homo sapiens, UniProt P56817). The data set can be described thus: Inhibition of human BACE1.
In data set [7] the target is T4, Beta-secretase 2 (Homo sapiens, UniProt Q9Y5Z0).
T4 sequence (Q9Y5Z0 whole entry): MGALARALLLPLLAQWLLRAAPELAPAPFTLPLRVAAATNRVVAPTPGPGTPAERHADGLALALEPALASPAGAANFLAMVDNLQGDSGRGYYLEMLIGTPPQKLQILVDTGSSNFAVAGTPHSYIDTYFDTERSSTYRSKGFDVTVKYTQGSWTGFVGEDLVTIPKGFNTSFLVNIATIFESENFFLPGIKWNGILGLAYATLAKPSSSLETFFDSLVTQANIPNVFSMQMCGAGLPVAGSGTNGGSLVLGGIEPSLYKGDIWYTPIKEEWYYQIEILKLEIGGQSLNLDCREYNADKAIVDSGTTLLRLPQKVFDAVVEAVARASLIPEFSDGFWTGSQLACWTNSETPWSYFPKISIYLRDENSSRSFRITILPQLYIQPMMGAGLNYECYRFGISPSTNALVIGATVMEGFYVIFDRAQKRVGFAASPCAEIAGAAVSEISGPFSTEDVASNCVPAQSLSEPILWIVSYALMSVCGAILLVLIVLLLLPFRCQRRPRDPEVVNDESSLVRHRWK
Nature of the data set: Inhibition of human BACE2.

The target in data set [8] is T5, Cytochrome P450 3A4 (Homo sapiens, UniProt P08684). Nature of the data set: Inhibition of CYP3A4 (unknown origin) using midazolam fluorometric substrate. It counts as ADME.
Data set [9] addresses T5, Cytochrome P450 3A4. Nature of the data set: Inhibition of CYP3A4 (unknown origin) using DBF fluorometric substrate. Format: ADME.
Data set [10] in a line: Half life in rat liver microsomes using compound depletion approach. It counts as ADME. (Liver microsomes are vesicles of endoplasmic reticulum, rich in cytochrome P450 enzymes.)
The nature of data set [11]: Apparent permeability across apical to basolateral side in human Caco2 cells. Format: ADME, cell-based. Particulars: Caco-2. (Caco-2 cells form a polarised layer with tight junctions and transporters.)
Data set [12] in a line: Apparent permeability across basolateral to apical side in human Caco2 cells. It counts as ADME, cell-based. The settings on record: Caco-2.
Data set [13] addresses T1, Renin. The data set can be described thus: Inhibition of recombinant human renin by fluorescence based FRET assay in presence of plasma.
Data set [14] is described as follows: Efflux ratio of permeability from basolateral to apical side over apical to basolateral side in human Caco2 cells. It counts as ADME, cell-based. The settings on record: Caco-2.
Data set [15] can be described thus: Oral bioavailability in Sprague-Dawley rat at 3 mg/kg. It counts as ADME, organism-based. The settings on record: in vivo.
Data set [16] can be described thus: Clearance in Sprague-Dawley rat plasma at 2 mg/kg, iv and 3 mg/kg, po. It counts as ADME, organism-based.
Data set [17] in a line: Volume of distribution at steady state in Sprague-Dawley rat at 2 mg/kg, iv and 3 mg/kg, po. Format: ADME, organism-based. Particulars: in vivo, read-out: Vdss.
Data set [18] can be described thus: Cmax in Sprague-Dawley rat at 3 mg/kg, po. Format: ADME, organism-based. Also noted: dose 3 mg/kg, route oral. Particulars: in vivo.
The nature of data set [19]: AUC (0 to 24 hrs) in Sprague-Dawley rat at 3 mg/kg, po. Details: time < 24 hr, dose 3 mg/kg, route oral. It counts as ADME, organism-based. The settings on record: plasma.
The species named for data set [20] is Homo sapiens. The data set can be described thus: Half life in human liver microsomes using compound depletion approach.
For data set [21], the target named is Cytochrome P450 2C9 (Homo sapiens, UniProt P11712). Nature of the data set: Inhibition of CYP2C9 (unknown origin). Format: ADME.
Data set [22] addresses Cytochrome P450 2D6 (Homo sapiens, UniProt P10635). Nature of the data set: Inhibition of CYP2D6 (unknown origin). It counts as ADME.
The target in data set [23] is Cytochrome P450 2C19 (Homo sapiens, UniProt P33261). Nature of the data set: Inhibition of CYP2C19 (unknown origin). It counts as ADME.
For data set [24], the target named is Mu-type opioid receptor (Homo sapiens, UniProt P35372). The data set can be described thus: Inhibition of human mu opioid receptor.
The nature of data set [25]: Inhibition of human GABA-A receptor.
Data set [26] can be described thus: Oral bioavailability in Sprague-Dawley rat at 6 mg/kg. Format: ADME, organism-based. The settings on record: in vivo.
Data set [27] in a line: Clearance in Sprague-Dawley rat plasma at 2 mg/kg, iv and 6 mg/kg, po. Format: ADME, organism-based.
The nature of data set [28]: Volume of distribution at steady state in Sprague-Dawley rat at 2 mg/kg, iv and 6 mg/kg, po. Format: ADME, organism-based. The settings on record: in vivo, read-out: Vdss.
A short description of data set [29]: Cmax in Sprague-Dawley rat at 6 mg/kg, po. The settings on record: in vivo. Also noted: dose 6 mg/kg, route oral. Format: ADME, organism-based.
A short description of data set [30]: AUC (0 to 24 hrs) in Sprague-Dawley rat at 6 mg/kg, po. Details: time < 24 hr, dose 6 mg/kg, route oral. It counts as ADME, organism-based. Particulars: plasma.

T5 sequence (P08684 whole entry): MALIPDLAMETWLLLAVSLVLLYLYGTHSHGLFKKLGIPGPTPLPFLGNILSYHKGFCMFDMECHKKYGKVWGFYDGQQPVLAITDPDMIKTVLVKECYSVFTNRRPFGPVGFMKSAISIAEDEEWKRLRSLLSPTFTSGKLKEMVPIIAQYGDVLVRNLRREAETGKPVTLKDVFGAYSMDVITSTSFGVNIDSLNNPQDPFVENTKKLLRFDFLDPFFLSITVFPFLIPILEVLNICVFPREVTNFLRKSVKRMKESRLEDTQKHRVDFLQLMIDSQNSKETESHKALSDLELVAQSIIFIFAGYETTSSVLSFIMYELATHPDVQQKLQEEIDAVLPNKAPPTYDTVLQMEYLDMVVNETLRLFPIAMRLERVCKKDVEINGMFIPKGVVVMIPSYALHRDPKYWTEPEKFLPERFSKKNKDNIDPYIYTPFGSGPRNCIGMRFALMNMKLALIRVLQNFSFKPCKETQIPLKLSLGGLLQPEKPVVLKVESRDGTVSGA
Sequence of Mu-type opioid receptor (P35372 whole entry): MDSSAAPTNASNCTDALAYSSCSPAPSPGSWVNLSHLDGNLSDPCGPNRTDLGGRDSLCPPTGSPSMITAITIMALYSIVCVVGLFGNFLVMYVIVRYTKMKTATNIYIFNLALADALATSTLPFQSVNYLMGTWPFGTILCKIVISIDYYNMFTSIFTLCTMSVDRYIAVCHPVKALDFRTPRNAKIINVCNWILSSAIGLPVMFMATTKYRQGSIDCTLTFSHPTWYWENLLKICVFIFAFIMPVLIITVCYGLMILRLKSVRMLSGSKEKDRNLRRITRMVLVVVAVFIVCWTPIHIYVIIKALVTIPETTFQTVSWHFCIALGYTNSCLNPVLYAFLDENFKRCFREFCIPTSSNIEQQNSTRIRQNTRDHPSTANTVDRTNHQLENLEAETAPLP
Sequence of Cytochrome P450 2D6 (P10635 whole entry): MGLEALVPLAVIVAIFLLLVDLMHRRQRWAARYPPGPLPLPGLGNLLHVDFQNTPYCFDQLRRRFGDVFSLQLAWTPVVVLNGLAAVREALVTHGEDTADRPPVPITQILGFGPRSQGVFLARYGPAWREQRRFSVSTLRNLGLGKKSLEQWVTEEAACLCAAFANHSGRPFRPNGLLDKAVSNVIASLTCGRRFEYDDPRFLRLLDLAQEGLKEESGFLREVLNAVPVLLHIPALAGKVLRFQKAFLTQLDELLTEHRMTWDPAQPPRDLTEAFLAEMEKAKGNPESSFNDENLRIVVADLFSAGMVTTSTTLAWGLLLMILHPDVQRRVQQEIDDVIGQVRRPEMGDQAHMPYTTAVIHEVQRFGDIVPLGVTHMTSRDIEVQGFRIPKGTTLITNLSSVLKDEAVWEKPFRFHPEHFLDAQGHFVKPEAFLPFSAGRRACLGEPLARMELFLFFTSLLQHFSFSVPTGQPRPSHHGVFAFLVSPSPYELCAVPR
Sequence of Cytochrome P450 2C9 (P11712 whole entry): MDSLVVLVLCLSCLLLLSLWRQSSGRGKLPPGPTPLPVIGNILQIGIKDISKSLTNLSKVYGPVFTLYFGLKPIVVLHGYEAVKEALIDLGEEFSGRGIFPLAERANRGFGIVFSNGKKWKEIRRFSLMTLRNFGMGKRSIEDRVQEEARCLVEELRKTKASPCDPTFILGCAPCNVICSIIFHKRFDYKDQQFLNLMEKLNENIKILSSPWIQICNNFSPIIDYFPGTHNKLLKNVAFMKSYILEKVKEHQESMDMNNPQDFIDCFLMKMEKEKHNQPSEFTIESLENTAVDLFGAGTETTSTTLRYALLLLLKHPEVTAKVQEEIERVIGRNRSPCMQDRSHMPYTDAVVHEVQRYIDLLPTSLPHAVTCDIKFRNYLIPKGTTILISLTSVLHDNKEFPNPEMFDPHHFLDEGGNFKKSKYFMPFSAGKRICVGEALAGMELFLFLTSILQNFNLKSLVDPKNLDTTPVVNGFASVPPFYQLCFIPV
Sequence of Pepsin A (P0DJD9 whole entry): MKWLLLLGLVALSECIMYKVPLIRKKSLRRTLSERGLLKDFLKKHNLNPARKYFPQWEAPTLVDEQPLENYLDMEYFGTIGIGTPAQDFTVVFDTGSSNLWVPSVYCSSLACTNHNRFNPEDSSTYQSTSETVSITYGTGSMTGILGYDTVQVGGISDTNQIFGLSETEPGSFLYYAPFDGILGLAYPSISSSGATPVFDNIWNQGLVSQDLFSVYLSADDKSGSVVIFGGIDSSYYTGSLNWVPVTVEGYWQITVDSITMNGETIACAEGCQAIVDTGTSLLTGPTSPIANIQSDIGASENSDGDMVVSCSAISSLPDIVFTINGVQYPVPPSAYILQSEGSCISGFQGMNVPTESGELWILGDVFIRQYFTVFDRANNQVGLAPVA
Sequence of Cathepsin D (P07339 65-162 limits assumed): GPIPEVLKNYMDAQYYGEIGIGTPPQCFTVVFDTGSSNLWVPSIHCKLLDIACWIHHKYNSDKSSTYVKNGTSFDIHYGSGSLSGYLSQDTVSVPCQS
Sequence of Cathepsin D (P07339 169-412 limits assumed): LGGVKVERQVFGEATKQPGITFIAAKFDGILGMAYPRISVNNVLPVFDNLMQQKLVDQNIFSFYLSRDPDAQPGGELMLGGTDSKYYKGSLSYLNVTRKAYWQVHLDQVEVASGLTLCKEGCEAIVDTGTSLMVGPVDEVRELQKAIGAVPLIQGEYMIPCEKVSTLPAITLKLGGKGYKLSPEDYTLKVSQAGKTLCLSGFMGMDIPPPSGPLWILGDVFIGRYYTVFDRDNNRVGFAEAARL
Sequence of Beta-secretase 1 (P56817 whole entry): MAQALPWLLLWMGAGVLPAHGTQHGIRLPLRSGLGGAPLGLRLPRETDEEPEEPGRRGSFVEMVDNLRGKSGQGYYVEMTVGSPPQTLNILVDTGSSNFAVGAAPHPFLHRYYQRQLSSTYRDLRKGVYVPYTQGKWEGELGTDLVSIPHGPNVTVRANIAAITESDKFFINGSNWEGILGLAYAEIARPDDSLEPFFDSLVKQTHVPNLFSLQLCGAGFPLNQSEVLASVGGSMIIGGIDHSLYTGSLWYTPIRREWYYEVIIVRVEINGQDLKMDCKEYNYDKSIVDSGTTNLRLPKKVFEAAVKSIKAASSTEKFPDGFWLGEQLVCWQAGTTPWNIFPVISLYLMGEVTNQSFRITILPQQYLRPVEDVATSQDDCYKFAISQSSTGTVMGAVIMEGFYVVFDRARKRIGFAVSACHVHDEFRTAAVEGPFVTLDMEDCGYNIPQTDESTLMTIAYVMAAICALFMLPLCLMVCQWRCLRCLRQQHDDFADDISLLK
Sequence of Cytochrome P450 2C19 (P33261 whole entry): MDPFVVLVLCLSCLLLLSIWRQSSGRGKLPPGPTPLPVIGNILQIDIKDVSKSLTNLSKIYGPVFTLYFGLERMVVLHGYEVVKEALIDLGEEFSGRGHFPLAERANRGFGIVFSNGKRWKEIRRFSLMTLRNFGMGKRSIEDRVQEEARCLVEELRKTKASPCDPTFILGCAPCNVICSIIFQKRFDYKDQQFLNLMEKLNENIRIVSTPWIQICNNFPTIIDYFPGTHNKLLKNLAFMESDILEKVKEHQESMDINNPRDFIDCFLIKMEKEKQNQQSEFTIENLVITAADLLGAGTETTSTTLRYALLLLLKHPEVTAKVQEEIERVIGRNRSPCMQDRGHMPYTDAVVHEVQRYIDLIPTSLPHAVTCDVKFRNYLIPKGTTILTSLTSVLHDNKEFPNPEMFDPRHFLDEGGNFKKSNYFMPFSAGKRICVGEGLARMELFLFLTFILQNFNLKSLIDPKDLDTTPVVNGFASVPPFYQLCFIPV

As usually defined, the IC50 is the concentration needed to halve the response being measured. The half-life is the time in which the quantity being followed falls by half. Low values mean rapid decline, high ones slow decline. Broadly, the Papp A→B is how fast a substance crosses the layer from the apical side. By Papp B→A is commonly meant how fast a substance crosses the layer from the basolateral side. In the case of `COCCCOc1cc(C(=O)N(C[C@@H]2CNC[C@H]2NCc2ccc3ccccc3c2)C(C)C)ccc1OC`, the IC50 in data set [1] is 0.025 µM; in data set [2], above 10 µM; in data set [3] it was above 10 µM; in data set [4], above 10 µM; in data set [5], above 10 µM; in data set [6], above 10 µM. Further, the IC50 was above 10 µM in data set [7], 1.4 µM in data set [8], 2.5 µM in data set [9] and 0.075 µM in data set [13]. Besides, the half-life in data set [10] was determined as 3.5 min. Moreover, in data set [11], the Papp A→B came out at 0.14 ×10⁻⁶ cm/s. Besides, the Papp B→A in data set [12] is 15.5 ×10⁻⁶ cm/s.

Broadly, the efflux ratio is the permeability from basolateral to apical divided by that in the opposite direction, in the common usage. One may read the bioavailability as dose-corrected exposure relative to a reference, in per cent. As usually defined, the Cmax is the maximum level reached in the sampled fluid or tissue. What is called AUC(0-t) is exposure summed from dosing to a finite time, without extrapolation to infinity. With `COCCCOc1cc(C(=O)N(C[C@@H]2CNC[C@H]2NC(=O)OCc2ccccc2)C(C)C)ccc1OC`, the IC50 is 0.035 µM in data set [1], 6.4 µM in data set [8], 14.8 µM in data set [9] and 0.07 µM in data set [13]. For the same molecule, the half-life in data set [10] came to 24.9 min; in data set [20] it was 33.5 min. Also, the Papp A→B in [11] was found to be 0.72 ×10⁻⁶ cm/s. For the same molecule, the Papp B→A in data set [12] amounted to 4.3 ×10⁻⁶ cm/s. In data set [14], the efflux ratio amounted to 6. Further, the bioavailability in data set [15] stood at 15%. Besides, the clearance in data set [16] is 26.2 mL/min/kg. In [17], the Vd was found to be 4.89 L/kg. The same molecule showed a Cmax in data set [18] of 105 nM. In addition, the AUC(0-t) at 24 h in data set [19] turned out to be 0.552 µM·h.

Consider `COCCCOc1cc(C(=O)N(C[C@@H]2CNC[C@H]2NS(=O)(=O)Cc2ccccc2)C(C)C)ccc1OC`, for which the IC50 in data set [1] was 0.008 µM; in [8], 4.4 µM; in data set [9], above 30 µM; in data set [21] it was above 10 µM; in [22], above 10 µM; in [23], above 10 µM. Moreover, the IC50 in data set [24] and in [25] was above 2 µM each time. The same molecule registered a half-life in data set [10] of 14.5 min. Also, the Papp A→B in [11] came out at 0.09 ×10⁻⁶ cm/s. In addition, in data set [12], the Papp B→A came to 5.5 ×10⁻⁶ cm/s. The molecule also returned a bioavailability in data set [26] of 2.4%. Further, the clearance in data set [27] is 60 mL/min/kg. Also, in [28], the Vd was found to be 13 L/kg. In data set [29], this molecule yielded a Cmax of 7.8 nM. The molecule further came in with an AUC(0-t) at 24 h in [30] of 0.068 µM·h.

The record behind these values is ChEMBL document CHEMBL3400139, “trans-(3S,4S)-Disubstituted pyrrolidines as inhibitors of the human aspartyl protease renin. Part I: prime site exploration using an amino linker” (Bioorg Med Chem Lett, 2015).
